# Test results as given in patent US20060166956A1, “Use of anecortave acetate for the protection of visual acuity in patients with age related macular degeneration” (priority 2002, published 2006).
# Experiments:
# [1] = system: subfoveal CNV lesion secondary to AMD; experiment: Clinical trial: CNV lesion surface area change by standardized fluorescein angiograms (DARC); type: in vivo, patients; details: for inhibition of lesion growth, comparison with placebo: Month 6
# Excerpt: (§1) This ongoing trial was initiated to compare the clinical efficacy of anecortave acetate versus placebo treatment for preservation (maintenance) of vision and inhibition of CNV lesion growth. Patients with a log MAR visual acuity of 0.3 (20/40 Snellen equivalent) to 1.2 (20/320 Snellen equivalent) and primary or recurrent subfoveal choroidal neovascularization (CNV) secondary to AMD with a lesion up to 30.48 mm^2 (12 disc areas) in size were enrolled. At Baseline and follow-up visits, best-corrected log MAR visual acuity was obtained on all patients using guidelines previously established for the Early Treatment Diabetic Retinopathy Study. Patient lesion eligibility for this study was determined from standardized fluorescein angiograms at the Digital Angiography Reading Center (DARC) by certified Readers (trained retina specialists) prior to enrollment and treatment. The DARC also evaluated changes from Baseline in the fluorescein angiographic characteristics of the lesions in masked fashion. Each data point represents the average of at least two independent evaluations by DARC Readers. Because all angiographic data for this study is being collected using the same fundus camera and digital camera systems and stored as uncompressed digital images, the actual lesion surface areas can be more closely approximated in mm^2 rather than requiring the disc area “best-fit” estimates previously used for film angiographic data.
# The primary efficacy outcome for this ongoing study is the mean change from Baseline in best-corrected log MAR visual acuity. Secondary efficacy outcomes are: the percentage of patients with preservation or maintenance of vision (defined as loss of less than three log MAR lines [less than 15 log MAR letters] of visual acuity); the percentage of patients with clinically significant worsening of vision (defined as a loss of at least three log MAR lines [at least 15 log MAR letters] of visual acuity); the percentage of patients with severe vision loss (defined as a loss of at least six log MAR lines [at least 30 log MAR letters] of visual acuity); and changes in CNV lesion characteristics (defined as total lesion area, total CNV and total classic CNV).
# All efficacy analyses were based on the intent-to-treat principle. All patients received the medication to which they were assigned, and were analyzed accordingly. Last-observation-carry-forward was used to impute missing values. Baseline comparisons were tested using analysis of variance (for continuous outcomes) and Pearson's chi square (for binary outcomes). Changes from baseline in visual acuity and lesion parameters were tested in a repeated measures analysis of variance model with appropriate contrasts for the 6-month comparisons. Comparisons of binary outcomes at Month 6 were evaluated using Pearson's chi-square tests. All analyses of ocular outcomes are based on changes in the study (i.e., treated) eye.
# Total lesion areas, total CNV areas, and total classic CNV areas were measured and compared among treatment groups.
# [2] = system: patients with subfoveal choroidal neovascularization (CNV) secondary to AMD; experiment: Clinical trial: best-corrected log MAR visual acuity after single posterior juxtascleral administration; type: in vivo
# Excerpt: as §1
# The 128 patients in this double-masked, dose-response study were enrolled and treated between April 1999 and May 2001 by 18 participating sites in the US and EU. Prior to treatment, patients were enrolled and equally randomized to anecortave acetate sterile suspension for injection 30 mg (N=33), 15 mg (N=33), or 3 mg (N=32) or to placebo (vehicle, N=30). Masking of the clinical sites as to treatment group is being maintained in two ways. Study medication is masked by placing the treatment kits including study medication and supplies for the posterior juxtascleral administration in sealed opaque boxes identified by patient number only. The boxes were numbered sequentially at each clinical site and patients were assigned the next available sequential number upon enrollment. The randomization was built into the sequential numbering of the treatment kits and blocked within each site to maintain equal distribution across treatment assignments. Masking as to treatment group is also being maintained at each site by having an unmasked injecting investigator perform the treatments and a masked examining investigator perform the subsequent evaluations. Upon enrollment of each patient, anecortave acetate or placebo was administered behind the eye as a 0.5 mL posterior juxtascleral injection onto the outer surface of the sclera near the macula using a specially designed cannula. The cannula is described in commonly owned U.S. Pat. No. 6,413,245B 1.
# Clinical efficacy data is being obtained from evaluations of best-corrected log MAR visual acuity and standardized fluorescein angiograms. Clinical safety data obtained from general physical examinations, laboratory evaluations of blood and urine, and complete ophthalmic examinations, including indocyanine green angiography, continue to be periodically evaluated by the Independent Safety Committee overseeing this study. Clinical data from evaluations for safety and efficacy performed at Day 1-2, Week 2, Week 6, Month 3, and Month 6 following patient randomization and treatment are reported here. […]
# [3] = system: patients with exudative AMD; experiment: Clinical trial: clinical safety evaluation (Independent Safety Committee); type: in vivo
# Excerpt: Clinical efficacy data is being obtained from evaluations of best-corrected log MAR visual acuity and standardized fluorescein angiograms. Clinical safety data obtained from general physical examinations, laboratory evaluations of blood and urine, and complete ophthalmic examinations, including indocyanine green angiography, continue to be periodically evaluated by the Independent Safety Committee overseeing this study. Clinical data from evaluations for safety and efficacy performed at Day 1-2, Week 2, Week 6, Month 3, and Month 6 following patient randomization and treatment are reported here.
# Following completion of the Month 6 visit by all patients, the accumulated safety data were evaluated by the Independent Safety Committee overseeing this study. […] The most common ocular changes reported were changes in lens opacity using the Lens Opacity Classification System (LOCS) II, and included reports of nuclear color, nuclear opalescence, cortical, and posterior subcapsular changes. Cataracts are a common intercurrent disorder in this patient population, and the changes seen were documented in all treatment groups and in contralateral (untreated) eyes. The cataractous changes reported were described as mild and typically unrelated to treatment. The second most common ocular change, a decrease in vision (defined as a decrease of ≧4 log MAR lines from the previous visit), is also a common problem in this patient population. These vision decreases occurred in all treatment groups and in the contralateral eye. Other ocular changes (occurring with a frequency greater than 5%) were ptosis, ocular pain, subconjunctival hemorrhage, ocular pruritis, ocular burning/stinging, pupil disorders, foreign body sensation, ocular hyperemia, and abnormal vision. These changes were reported in all four treatment groups, in both treated eyes and contralateral eyes, were characterized as primarily mild, were generally not attributed to treatment, and were transient in nature. The single report of an IOP increase (≧10 mmHg) from Baseline occurred in a patient treated with anecortave acetate 30 mg and was attributed to intercurrent illness. Of the ocular changes reported, those most frequently attributed to study treatment were ptosis, ocular pain, subconjunctival hemorrhage, ocular pruritis, and ocular burning/stinging. These treatment-related events were mostly mild, transient, and seen within all four treatment groups.
compound,measurement,setting,value
"CC(=O)OCC(=O)[C@@]1(O)CC[C@H]2[C@@H]3CCC4=CC(=O)CC[C@]4(C)C3=CC[C@@]21C [anecortave acetate, 4,9(11)-pregnadien-17α,21-diol-3,20 dione-21 acetate]","inhibition of lesion growth, comparison with placebo",[1]; 3 mg,trend favoring
same,"inhibition of total CNV surface area (percent change from Baseline), comparison with placebo","[1]; 15 mg, Month 6, p=0.0001",statistically superior to placebo treatment
same,"inhibition of total lesion surface area (percent change from Baseline), comparison with placebo","[1]; 15 mg, Month 6, p=0.0005",statistically superior to placebo treatment
same,"inhibition of total classic CNV surface area (percent change from Baseline), comparison with placebo","[1]; 15 mg, Month 6, p=0.0008",statistically superior to placebo treatment
same,"inhibition of lesion growth, comparison with placebo",[1]; 30 mg,trend favoring
same,"mean change at Month 6 from Baseline in log MAR visual acuity, comparison with placebo",[2]; 3 mg,Trends also favor treatment
same,percentage of patients with preservation of vision (decrease of less than three log MAR lines),"[2]; 15 mg, Month 6, all patients",88%
same,percentage of patients with preservation of vision (decrease of less than three log MAR lines),"[2]; 15 mg, Month 6, subgroup with predominantly classic CNV lesion, p=0.0209 vs placebo",92%
same,"mean change at Month 6 from Baseline in log MAR visual acuity, comparison with placebo","[2]; 15 mg, p=0.0032",statistically superior to placebo treatment
same,"mean change at Month 6 from Baseline in log MAR visual acuity, comparison with placebo",[2]; 30 mg,Trends also favor treatment
same,reports of IOP increase (≧10 mmHg) from Baseline,[3]; 30 mg,single report
same,"changes in blood chemistry, hematology, or urinalysis",[3]; all doses,No treatment-related changes
same,safety concerns identified by the Independent Safety Committee,"[3]; all doses, after Month 6 visit",no clinically relevant medication-related or administration-related safety concerns were identified
same,"ocular corticosteroid side effects (elevated intraocular pressure, accelerated cataract progression)","[3]; clinical study, at least 6 months exposure",no clinical evidence
